According to patent US4558127A, “5-Fluorouracil nitroxyl derivatives possessing antitumor activity” (priority 1984, dated 1985):

How the values were obtained:
[1] = Toxicity (LD50), intraperitoneal administration, mongrel white mice, Burns method; type: in vivo, mouse; settings: mice; for LD50: mouse, in vivo, ip, intraperitoneal, I, II, III as emulsion in 10% aqueous Tween-80, IV, Ftorafur, 5-fluorouracyl as aqueous solutions; for less toxic than 5-fluorouracyl, fold: relative to 5-fluorouracyl
Description: Toxicity of the compounds according to the present invention has been determined on mongrel white mice in experimental intraperitoneal administration of these compounds and evaluated by the Burns method (using curves of accumulation of the animal death frequencies vs. dose).
As the toxicity characteristic use was made of the dose causing death of 50% of the animals employed for the experiment (LD50).
For the determination of toxicity of (1,3-bis-(2,2,5,5-tetramethyl-1-oxyl-Δ^3 -pyrrolin-3-oyl)-5-fluorouracyl(compound I), 1-(2,2,5,5-tetramethyl-1-oxyl-Δ^3 -pyrrolin-3-oyl)-5-fluorouracyl (compound II) and 3-(2,2,5,5-tetramethyl-1-oxyl-Δ^3 -pyrrolin-3-oyl)-5-fluorouracyl (compound III), these compounds were administered intraperitoneally in the form of an emulsion in a 10% aqueous solution of polyoxyethylsorbitan monooleate (Tween-80, Ferak Berlin West Germany).
For the determination of toxicity of sodium salt of 3-(2,2,5,5-tetramethyl-1-oxyl-Δ^3 -pyrrolin-3-oyl)-5-fluorouracyl (compound IV), Ftorafur and 5-fluorouracyl, these compounds were also administered intraperitoneally in the form of aqueous solutions.

leukemia La = experiment: Antitumor activity on grafted leukemia La in mice (ELS, kinetic criterion, chemotherapeutic index); type: in vivo, mouse; settings: for Chemotherapeutic index I40 = LD10/ED40 / kinetic criterion (.chi.) = 1-.phi.t/.phi.c / ELS (extension of average life span): La, C57Bl mice; for Chemotherapeutic index I40 = LD10/ED40: i/p
Description: (§1) For the determination of antitumor activity these compounds (I, II, III, IV), 5-fluorouracyl and Ftorafur were used in the same solvents as in the determination of toxicity.
(§2) The determination of antitumor activity was effected on grafted tumors of mice: leukemia L-1210, leukemia P-388, Leukemia La, melanoma B-16, adenocarcinoma 755 (Ca-755), as well as on grafted tumors of rats: Schwetz erythroleukosis, Walker carcinosarcoma (WCS), Geren carcinoma.
Leukemia La was grafted intraperitoneally using a suspension of leukemic cells in a physiological solution. The inoculum contained 10^8 of leukemia cells. […]
In the determination of the antitumor activity the test compounds were introduced in equitoxic doses.
The criterion of the antitumor activity for leukemia P-338, L-1210 and La is the extension of an average life span (ELS) of the test animals as compared to the control ones, expressed in percent and calculated by the formula: [formula] wherein Lt --life span of animals in the test group;
Lc --life span of animals in the control group, i.e. without administration of the test compounds.
The comparative assessment of the scope of therapeutic action is effected using chemotherapeutic indices I40, I60 and I100 : I40 =LD10 /ED40, I60 =LD10 /ED60 I100 =LD10 /ED100, where LD10 =dose causing death of 10% of the animals; ED40, ED60 and ED100 are effective doses causing extension of the animal's life span by 40, 60 and 100 percent respectively.

Solubility = type: physicochemical; settings: for solubility in organic solvents: alcohols, acetone, acetonitrile, dimethylformamide, dimethylsulphoxide; for solubility in aqueous alkalis or buffer solutions: pH above 10
[2] = Stability against hydrolysis; type: physicochemical
melanoma B-16 = experiment: Antitumor activity on grafted melanoma B-16 in mice (inhibition of tumor volume gain); type: in vivo, mouse; settings: for Inhibition of tumor volume gain: B-16, CBAF1 mice, days 1-10
Description: as §1, §2
(§3) In the determination of the antitumor activity the test compounds were introduced in equitoxic doses. Ftorafur was also used in the optimal dose which is equal to […].
(§4) As the criterion of antitumor activity on solid tumors used is the inhibition (I) of the tumor volume gain in comparison with the control, expressed in percent and calculated by the formula: [formula] wherein Vc --average volume of the tumor in the control,
(§5) Vt --average volume of the tumor in the experiment.

Schwetz erythroleukosis = experiment: Antitumor activity on grafted Schwetz erythroleukosis in rats; type: in vivo, rat; settings: mongrel rats, single dose 25 mg/kg i/p, days 7-14
Description: as §1, §2, §3, §4, §5

[3] = background art; cited from earlier work
[4] = single dose 75 mg/kg i/p, days 1-7 after grafting
[5] = single dose 75 mg/kg i/p, days 1-7 after grafting, control life span 6,5 days
[6] = leukemia La, relative to Ftorafur

Row | SMILES | LD50 [1] [mg/kg] | Chemotherapeutic index I40 = LD10/ED40 (leukemia La; days 1-7) | kinetic criterion (.chi.) = 1-.phi.t/.phi.c (leukemia La; [4]) | ELS (extension of average life span) (leukemia La; [5]) [%] | therapeutic effect compared with 5-fluorouracyl, in words (leukemia La; leukemia La) | effectiveness relative to Ftorafur as regards ELS, fold (leukemia La; [6]) [times] | solubility in organic solvents (Solubility) | solubility in aqueous alkalis or buffer solutions (Solubility) | solubility in water (Solubility) | less toxic than 5-fluorouracyl, fold ([1]; i/p) [times] | kinetic criterion compared with Ftorafur, in words (leukemia La; leukemia La) | also measured
1 | CC1(C)C=C(C(=O)n2cc(F)c(=O)[nH]c2=O)C(C)(C)N1[O] [II, 1-(2,2,5,5-tetramethyl-1-oxyl-Δ^3 pyrrolin-3-oyl)-5-fluorouracyl] | 150 | 2,0 | 0.5 | 45 | similar, in these characteristics, to 5-fluorouracyl | 3 | wellsoluble | well soluble | sparingly soluble in water | – | – | toxicity compared with 5-fluorouracyl, in words ([1]; i/p): substantially similar to that of 5-fluorouracyl; effectiveness relative to Ftorafur as regards kinetic criterion, fold (leukemia La; [6]): 3 times; hydrolysis in aqueous solutions of alkalis ([2]; to fluorouracyl and 2,2,5,5-tetramethyl-1-oxyl-Δ^3 -pyrrolin-3-carboxylic acid, rate increases with increasing pH): rapidly hydrolyzed
2 | CC1(C)C=C(C(=O)n2c(=O)[nH]cc(F)c2=O)C(C)(C)N1[O] [III, 3-(2,2,5,5-tetramethyl-1-oxyl-Δ^3-pyrrolin-3-oyl)-5-fluororacyl] | 550 | 7,8 | – | – | close to 5-fluorouracyl | 2 | wellsoluble | well soluble | sparingly soluble in water | 5 | close values | toxicity compared with Ftorafur, in words ([1]; i/p): approach toxicity of Ftorafur; kinetic criterion (.chi.) = 1-.phi.t/.phi.c (leukemia La; single dose 65 mg/kg i/p, days 1-7): 0,2; ELS (extension of average life span) (leukemia La; single dose 65 mg/kg i/p, days 1-7, control life span 6,5 days): 40%; stability against hydrolysis ([2]; room temperature, pH 3 to 11, about 5 hours): do not undergo any noticeable hydrolytical decomposition
3 | CC1(C)C=C(C(=O)n2cc(F)c(=O)n(C(=O)C3=CC(C)(C)N([O])C3(C)C)c2=O)C(C)(C)N1[O] [I, 1,3-bis-(2,2,5,5-tetramethyl-1-oxyl-Δ^3-pyrrolin-3-oyl)-5-fluorouracyl] | 350 | 4,0 | 0,1 | 30 | close to 5-fluorouracyl | 2 | wellsoluble | – | sparingly soluble in water | 3.5 | close values | Inhibition of tumor volume gain (melanoma B-16; single dose 75 mg/kg i/p): 15%
4 | O=c1[nH]cc(F)c(=O)[nH]1 [5-fluorouracyl, reference compound] | 100 | – | – | – | – | – | – | – | – | – | – | ELS (extension of average life span) (leukemia La; single dose 25 mg/kg i/p, days 1-7, control life span 6.5 days): 57%; kinetic criterion (.chi.) = 1-.phi.t/.phi.c (leukemia La; single dose 35 mg/kg i/p, days 1,3,5,7): 0.67; ELS (extension of average life span) (leukemia La; single dose 35 mg/kg i/p, days 1,3,5,7, control life span 6,5 days): 57%; Chemotherapeutic index I60 = LD10/ED60 (leukemia La; mouse, in vivo, ip): 3.6; Inhibition of tumor volume gain (melanoma B-16; single dose 25 mg/kg i/p): 0%; activity on melanoma B-16, in words (melanoma B-16; mouse, in vivo): shows no activity; Inhibition of tumor volume gain (Schwetz erythroleukosis): 15%; toxicity / side effects in words [3]: highly toxic, it strongly affects the function of bone marrow and gastro-intestinal tract
